In patent US20230278972A1, “SUBSTITUTED HALOALKYL SULFONANILIDE HERBICIDES” (FMC Corporation, priority 2020, published 2023):

What was measured:
Format in all cases: in vivo
[1] = system: blackgrass (Alopecurus myosuroides); assay: Test A postemergence, blackgrass; conditions: Postemergence; for Blackgrass plant response rating: visual injury vs untreated controls after approx. 10 days
How it was run: (§1)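 Formulated with a surfactant in a non-phytotoxic solvent, compounds are applied to loam–sand pots, either to bare soil immediately after seeding (preemergence) or to seedlings of 2 to 10 cm bearing one to two leaves (postemergence).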

[2] = system: pigweed (Amaranthus retroflexus); assay: Test A preemergence, pigweed; conditions: for Pigweed plant response rating: 125 g ai/ha, visual injury on 0 to 100 scale (0 no effect, 100 complete control), approximately 10 days; for Plant response rating, Pigweed: 0 to 100 scale (0 no effect, 100 complete control)
How it was run: (§2)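 Seeds are sown in loam mixed with sand and sprayed on the soil surface right after planting for the preemergence test. Postemergence pots are sprayed once seedlings reach 2 to 10 cm at the one- to two-leaf stage. The same surfactant-containing, non-phytotoxic solvent formulation serves both.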

[3] = system: barnyardgrass (Echinochloa crus-galli); assay: Test A preemergence, barnyardgrass; conditions: Preemergence; for Barnyardgrass plant response rating: 125 g ai/ha, visual injury on 0 to 100 scale (0 no effect, 100 complete control), approximately 10 days; for Plant response rating, Barnyardgrass: 0 to 100 scale (0 no effect, 100 complete control)
How it was run: as §1

kochia (Bassia scoparia) [4] = assay: Test A postemergence, kochia; conditions: Postemergence; for Kochia plant response rating: visual injury vs untreated controls after approx. 10 days
How it was run: as §1

kochia (Bassia scoparia) [5] = assay: Test A preemergence, kochia; conditions: Preemergence; for Kochia plant response rating: 125 g ai/ha, visual injury on 0 to 100 scale (0 no effect, 100 complete control), approximately 10 days; for Plant response rating, Kochia: 0 to 100 scale (0 no effect, 100 complete control)
How it was run: as §1

[6] = system: galium (catchweed bedstraw, Galium aparine); assay: Test A postemergence, galium; conditions: Postemergence; for Galium plant response rating: visual injury vs untreated controls after approx. 10 days
How it was run: as §2

[7] = system: ragweed (common ragweed, Ambrosia artemisiifolia); assay: Test A postemergence, ragweed; conditions: Postemergence; for Ragweed plant response rating: visual injury vs untreated controls after approx. 10 days
How it was run: as §1

[8] = system: ragweed (common ragweed, Ambrosia artemisiifolia); assay: Test A preemergence, ragweed; conditions: Preemergence; for Ragweed plant response rating: 125 g ai/ha, visual injury on 0 to 100 scale (0 no effect, 100 complete control), approximately 10 days; for Plant response rating, Ragweed: 0 to 100 scale (0 no effect, 100 complete control)
How it was run: as §1

[9] = system: barnyardgrass (Echinochloa crus-galli); assay: Test A postemergence, barnyardgrass; conditions: Postemergence; for Barnyardgrass plant response rating: visual injury vs untreated controls after approx. 10 days
How it was run: as §2

corn (Zea mays) = assay: Test A postemergence, corn; conditions: Postemergence; for Corn plant response rating: visual injury vs untreated controls after approx. 10 days
How it was run: as §1

[10] = system: pigweed (Amaranthus retroflexus); assay: Test A postemergence, pigweed; conditions: Postemergence; for Pigweed plant response rating: visual injury vs untreated controls after approx. 10 days
How it was run: as §1

[11] = system: wheat (Triticum aestivum); assay: Test A postemergence, wheat; conditions: Postemergence; for Wheat plant response rating: visual injury vs untreated controls after approx. 10 days
How it was run: as §2

[12] = system: Ryegrass, Italian (Italian ryegrass, Lolium multiflorum); assay: Test A postemergence, Ryegrass, Italian; conditions: Postemergence; for Ryegrass, Italian plant response rating: visual injury vs untreated controls after approx. 10 days
How it was run: as §1

[13] = system: Foxtail, Giant (giant foxtail, Setaria faberi); assay: Test A preemergence, Foxtail, Giant; conditions: Preemergence; for Foxtail, Giant plant response rating: 125 g ai/ha, visual injury on 0 to 100 scale (0 no effect, 100 complete control), approximately 10 days; for Plant response rating, Foxtail, Giant: 0 to 100 scale (0 no effect, 100 complete control)
How it was run: as §1

[14] = system: Ryegrass, Italian (Italian ryegrass, Lolium multiflorum); assay: Test A preemergence, Ryegrass, Italian; conditions: Preemergence; for Ryegrass, Italian plant response rating: 125 g ai/ha, visual injury on 0 to 100 scale (0 no effect, 100 complete control), approximately 10 days; for Plant response rating, Ryegrass, Italian: 0 to 100 scale (0 no effect, 100 complete control)
How it was run: as §1

[15] = system: Foxtail, Giant (giant foxtail, Setaria faberi); assay: Test A postemergence, Foxtail, Giant; conditions: Postemergence; for Foxtail, Giant plant response rating: visual injury vs untreated controls after approx. 10 days
How it was run: as §1

[16] = 125 g ai/ha, visual injury approx. 10 days, 0 to 100 scale (0 no effect, 100 complete control)
[17] = 500 g ai/ha, 0 to 100 scale (0 no effect, 100 complete control)
[18] = 31 g ai/ha, visual injury on 0 to 100 scale (0 no effect, 100 complete control), approx. 10 days
[19] = 125 g ai/ha, 0 to 100 scale (0 no effect, 100 complete control)
[20] = 31 g ai/ha, visual injury, approx. 10 days
[21] = 500 g ai/ha, visual injury, 0 to 100 scale (0 no effect, 100 complete control), approx. 10 days

Compound: Cc1cc(C)c(N(S(=O)(=O)C(F)(F)F)S(=O)(=O)C(F)(F)F)cc1C1=NOC(C(C)(C)C)C1 (centres unmarked) [Compound 127]
- Plant response rating, Blackgrass [1, 16]: 20
- Blackgrass plant response rating [1, 17]: 20
- Pigweed plant response rating [2]: 20
- Plant response rating, Pigweed ([2]; 500 g ai/ha): 40
- Barnyardgrass plant response rating [3]: 50
- Plant response rating, Barnyardgrass ([3]; 500 g ai/ha): 90
- Plant response rating, Kochia (kochia (Bassia scoparia) [4]; [16]): 10
- Kochia plant response rating (kochia (Bassia scoparia) [4]; [17]): 40
- Kochia plant response rating (kochia (Bassia scoparia) [5]): 80
- Plant response rating, Kochia (kochia (Bassia scoparia) [5]; 500 g ai/ha): 80
- Plant response rating, Galium [6, 16]: 20
- Galium plant response rating [6, 17]: 90
- Plant response rating, Ragweed [7, 16]: 20
- Ragweed plant response rating [7, 17]: 50
- Ragweed plant response rating [8]: 0
- Plant response rating, Ragweed ([8]; 500 g ai/ha): 60
- Plant response rating, Barnyardgrass [9, 16]: 0
- Barnyardgrass plant response rating [9, 17]: 70
- Plant response rating, Corn (corn (Zea mays); [16]): 0
- Corn plant response rating (corn (Zea mays); [17]): 20
- Plant response rating, Pigweed [10, 16]: 0
- Pigweed plant response rating [10, 17]: 40
- Plant response rating, Wheat [11, 16]: 0
- Wheat plant response rating [11, 17]: 0
- Plant response rating, Ryegrass, Italian [12, 16]: 40
- Ryegrass, Italian plant response rating [12, 17]: 50
- Foxtail, Giant plant response rating [13]: 20
- Plant response rating, Foxtail, Giant ([13]; 500 g ai/ha): 90
- Ryegrass, Italian plant response rating [14]: 60
- Plant response rating, Ryegrass, Italian ([14]; 500 g ai/ha): 80
- Plant response rating, Foxtail, Giant [15, 16]: 0
- Foxtail, Giant plant response rating [15, 17]: 0

Compound: Cc1cc(C)c(C(=O)N2CCCC(F)C2)cc1NS(=O)(=O)C(F)(F)F (centres unmarked) [Compound 155]
- Plant response rating, Blackgrass [1, 18]: 10
- Plant response rating, Blackgrass [1, 19]: 30
- Plant response rating, Pigweed [2, 20]: 90
- Pigweed plant response rating [2]: 100
- Plant response rating, Barnyardgrass [3, 20]: 50
- Barnyardgrass plant response rating [3]: 90
- Plant response rating, Kochia (kochia (Bassia scoparia) [4]; [18]): 20
- Plant response rating, Kochia (kochia (Bassia scoparia) [4]; [19]): 60
- Plant response rating, Kochia (kochia (Bassia scoparia) [5]; [20]): 30
- Kochia plant response rating (kochia (Bassia scoparia) [5]): 40
- Plant response rating, Galium [6, 18]: 80
- Plant response rating, Galium [6, 19]: 90
- Plant response rating, Ragweed [7, 18]: 60
- Plant response rating, Ragweed [7, 19]: 80
- Plant response rating, Ragweed [8, 20]: 90
- Ragweed plant response rating [8]: 80
- Plant response rating, Barnyardgrass [9, 18]: 90
- Plant response rating, Barnyardgrass [9, 19]: 90
- Plant response rating, Corn (corn (Zea mays); [18]): 50
- Plant response rating, Corn (corn (Zea mays); [19]): 90
- Plant response rating, Pigweed [10, 18]: 80
- Plant response rating, Pigweed [10, 19]: 90
- Plant response rating, Wheat [11, 18]: 30
- Plant response rating, Wheat [11, 19]: 60
- Plant response rating, Ryegrass, Italian [12, 18]: 40
- Plant response rating, Ryegrass, Italian [12, 19]: 90
- Plant response rating, Foxtail, Giant [13, 20]: 50
- Foxtail, Giant plant response rating [13]: 80
- Plant response rating, Ryegrass, Italian [14, 20]: 80
- Ryegrass, Italian plant response rating [14]: 80
- Plant response rating, Foxtail, Giant [15, 18]: 20
- Plant response rating, Foxtail, Giant [15, 19]: 30

Compound: COc1cc(-c2cc(NS(=O)(=O)C(F)(F)F)c(C)cc2C)c(=O)n(C)n1 [Compound 70]
- Plant response rating, Blackgrass [1, 16]: 30
- Blackgrass plant response rating [1, 17]: 30
- Pigweed plant response rating [2]: 80
- Plant response rating, Pigweed ([2]; 500 g ai/ha): 80
- Barnyardgrass plant response rating [3]: 90
- Plant response rating, Barnyardgrass ([3]; 500 g ai/ha): 100
- Plant response rating, Kochia (kochia (Bassia scoparia) [4]; [16]): 0
- Kochia plant response rating (kochia (Bassia scoparia) [4]; [17]): 0
- Kochia plant response rating (kochia (Bassia scoparia) [5]): 0
- Plant response rating, Kochia (kochia (Bassia scoparia) [5]; 500 g ai/ha): 0
- Plant response rating, Galium [6, 16]: 60
- Galium plant response rating [6, 17]: 80
- Plant response rating, Ragweed [7, 16]: 0
- Ragweed plant response rating [7, 17]: 0
- Ragweed plant response rating [8]: 10
- Plant response rating, Ragweed ([8]; 500 g ai/ha): 70
- Plant response rating, Barnyardgrass [9, 16]: 0
- Barnyardgrass plant response rating [9, 17]: 50
- Plant response rating, Corn (corn (Zea mays); [16]): 0
- Corn plant response rating (corn (Zea mays); [17]): 0
- Plant response rating, Pigweed [10, 16]: 0
- Pigweed plant response rating [10, 17]: 20
- Plant response rating, Wheat [11, 16]: 0
- Wheat plant response rating [11, 17]: 30
- Plant response rating, Ryegrass, Italian [12, 16]: 0
- Ryegrass, Italian plant response rating [12, 17]: 0
- Foxtail, Giant plant response rating [13]: 10
- Plant response rating, Foxtail, Giant ([13]; 500 g ai/ha): 90
- Ryegrass, Italian plant response rating [14]: 50
- Plant response rating, Ryegrass, Italian ([14]; 500 g ai/ha): 60
- Plant response rating, Foxtail, Giant [15, 16]: 0
- Foxtail, Giant plant response rating [15, 17]: 20

Compound: Cc1cc(C)c(-c2cc(C(C)C)nn(C)c2=O)cc1NS(=O)(=O)C(F)(F)F [Compound 41]
- Plant response rating, Blackgrass [1, 16]: 0
- Plant response rating, Blackgrass [1, 21]: 40
- Pigweed plant response rating [2]: 0
- Plant response rating, Pigweed ([2]; 500 g ai/ha): 0
- Barnyardgrass plant response rating [3]: 50
- Plant response rating, Barnyardgrass ([3]; 500 g ai/ha): 90
- Plant response rating, Kochia (kochia (Bassia scoparia) [4]; [16]): 0
- Plant response rating, Kochia (kochia (Bassia scoparia) [4]; [21]): 0
- Kochia plant response rating (kochia (Bassia scoparia) [5]): 0
- Plant response rating, Kochia (kochia (Bassia scoparia) [5]; 500 g ai/ha): 0
- Plant response rating, Galium [6, 16]: 10
- Plant response rating, Galium [6, 21]: 30
- Plant response rating, Ragweed [7, 16]: 40
- Plant response rating, Ragweed [7, 21]: 70
- Ragweed plant response rating [8]: 30
- Plant response rating, Ragweed ([8]; 500 g ai/ha): 80
- Plant response rating, Barnyardgrass [9, 16]: 0
- Plant response rating, Barnyardgrass [9, 21]: 80
- Plant response rating, Corn (corn (Zea mays); [16]): 0
- Plant response rating, Corn (corn (Zea mays); [21]): 0
- Plant response rating, Pigweed [10, 16]: 0
- Plant response rating, Pigweed [10, 21]: 0
- Plant response rating, Wheat [11, 16]: 50
- Plant response rating, Wheat [11, 21]: 60
- Plant response rating, Ryegrass, Italian [12, 16]: 60
- Plant response rating, Ryegrass, Italian [12, 21]: 60
- Foxtail, Giant plant response rating [13]: 10
- Plant response rating, Foxtail, Giant ([13]; 500 g ai/ha): 80
- Ryegrass, Italian plant response rating [14]: 60
- Plant response rating, Ryegrass, Italian ([14]; 500 g ai/ha): 80
- Plant response rating, Foxtail, Giant [15, 16]: 0
- Plant response rating, Foxtail, Giant [15, 21]: 30
